In PubChem BioAssay AID1259407 (Chemical Carcinogenesis Research Information System (CCRIS), 2018):
The source made the active and inactive calls. The rule behind the calls is not given here.

Tested on: CCRIS mutagenicity, Ames/micronucleus/aberration tests
Assay: CCRIS mutagenicity studies
Settings: Test System: AMES SALMONELLA TYPHIMURIUM, Method: STANDARD PLATE

Measured: mutagenic call

CCN(CC)c1ccc(N=Nc2ccc(N=Nc3c(S(=O)(=O)O)cc4ccc(N)cc4c3O)c(OC)c2)cc1
active: Strain/Indicator: TA98, Metabolic Activation: RAT, LIVER, S-9, AROCLOR 1254 active; positive | Strain/Indicator: TA1538, Metabolic Activation: RAT, LIVER, S-9, AROCLOR 1254 active; positive
inactive: Strain/Indicator: TA98, Metabolic Activation: NONE inactive; negative | Strain/Indicator: TA100, Metabolic Activation: NONE inactive; negative | Strain/Indicator: TA100, Metabolic Activation: RAT, LIVER, S-9, AROCLOR 1254 inactive; negative | Strain/Indicator: TA1538, Metabolic Activation: NONE inactive; negative
